Measurements: patent US7981903B2, “2-[2-{phenylamino}-1H-pyrrolo[2,3-D]pyrimidin-4-yl)amino] benzamide derivatives as IGF-1R inhibitors for the treatment of cancer” (GlaxoSmithKline LLC, priority 2007, dated 2011)
Where two headings read alike, the source gives them in different places.

How the values were obtained:
ALCL cells [1] = conditions: cited from earlier work
ALCL cells [2] = conditions: cited from earlier work; remark: listed apart in the source
ALK [3] = target: T1, ALK (Homo sapiens, UniProt Q9UM73); set-up: host or cells: ALCL cells; the other entry of the earlier key: NPM1 (P06748, Nucleophosmin); conditions: cited from earlier work
Target sequence in this assay (Q9UM73 with tags, fused parts or gaps): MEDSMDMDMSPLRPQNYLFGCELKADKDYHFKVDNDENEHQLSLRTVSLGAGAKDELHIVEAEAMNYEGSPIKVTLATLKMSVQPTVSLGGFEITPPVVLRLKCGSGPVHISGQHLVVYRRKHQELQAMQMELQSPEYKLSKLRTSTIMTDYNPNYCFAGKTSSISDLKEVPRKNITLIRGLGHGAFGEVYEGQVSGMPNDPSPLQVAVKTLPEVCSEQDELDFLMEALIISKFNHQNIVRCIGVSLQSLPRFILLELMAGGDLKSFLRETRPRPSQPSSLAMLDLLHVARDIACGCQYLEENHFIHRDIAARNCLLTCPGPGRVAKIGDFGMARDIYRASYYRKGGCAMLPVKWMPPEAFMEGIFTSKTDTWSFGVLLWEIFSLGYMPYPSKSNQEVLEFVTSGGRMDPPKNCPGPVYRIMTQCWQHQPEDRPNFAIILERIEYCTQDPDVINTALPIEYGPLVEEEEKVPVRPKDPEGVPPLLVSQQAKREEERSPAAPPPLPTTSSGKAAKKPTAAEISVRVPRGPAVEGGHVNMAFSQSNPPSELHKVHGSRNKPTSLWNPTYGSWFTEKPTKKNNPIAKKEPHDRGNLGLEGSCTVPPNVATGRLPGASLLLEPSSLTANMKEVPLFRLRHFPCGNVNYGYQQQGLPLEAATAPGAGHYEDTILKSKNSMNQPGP

human IGF1R (hIGF1R) = target: T2, human IGF1R (hIGF1R) (Homo sapiens, UniProt P08069); experiment: TR-FRET kinase assay of purified hIGF1R; type: biochemical; conditions: activated hIGF1R 0.5 nM, 10 μM ATP, values given as pIC50 category, read-out: IGF-1R pIC50 (converted)
T2 construct: containing amino acid residues 957-1367 of human IGF1R; made in house; host or cells: Sf9 cells (baculovirus)
T2 sequence (P08069 957-1367): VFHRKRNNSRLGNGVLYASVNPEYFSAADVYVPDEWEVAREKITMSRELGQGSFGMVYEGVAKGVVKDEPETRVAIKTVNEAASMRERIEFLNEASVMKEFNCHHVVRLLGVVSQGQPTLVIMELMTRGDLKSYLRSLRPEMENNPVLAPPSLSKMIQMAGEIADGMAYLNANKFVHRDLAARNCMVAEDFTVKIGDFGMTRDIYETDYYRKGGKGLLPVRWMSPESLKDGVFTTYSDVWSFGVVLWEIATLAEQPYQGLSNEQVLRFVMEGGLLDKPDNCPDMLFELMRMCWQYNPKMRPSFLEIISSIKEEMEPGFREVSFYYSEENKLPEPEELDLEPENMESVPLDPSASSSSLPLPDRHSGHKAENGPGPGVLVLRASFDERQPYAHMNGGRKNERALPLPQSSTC

human IR (hIR) = target: T3, human IR (hIR) (Homo sapiens, UniProt P06213); experiment: TR-FRET kinase assay of purified hIR; type: biochemical; conditions: activated hIR 0.5 nM, 10 μM ATP, values given as pIC50 category
T3 construct: containing amino acid residues 979-1382 of human IR; made in house; host or cells: Sf9 cells (baculovirus), same process as hIGF1R
T3 sequence (P06213 979-1382): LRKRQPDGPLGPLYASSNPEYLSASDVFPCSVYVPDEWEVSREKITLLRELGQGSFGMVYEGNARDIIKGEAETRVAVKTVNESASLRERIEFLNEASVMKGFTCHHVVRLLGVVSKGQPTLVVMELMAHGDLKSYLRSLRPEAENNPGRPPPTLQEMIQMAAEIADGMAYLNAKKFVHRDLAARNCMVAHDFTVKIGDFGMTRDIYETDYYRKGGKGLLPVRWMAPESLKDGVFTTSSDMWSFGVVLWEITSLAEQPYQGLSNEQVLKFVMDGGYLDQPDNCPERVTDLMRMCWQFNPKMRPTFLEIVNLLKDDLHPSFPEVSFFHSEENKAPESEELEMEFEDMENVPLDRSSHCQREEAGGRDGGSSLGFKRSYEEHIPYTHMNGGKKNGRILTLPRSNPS

Colo205 = experiment: Inhibition of cell proliferation (CellTiter-Glo or InCell analyzer), Colo205; type: cell-based; conditions: Homo sapiens, COLO 205, 72 h / 3 days, values given as IC50 category
Method in brief: In one

NCI-H929 = experiment: Inhibition of cell proliferation (CellTiter-Glo or InCell analyzer), NCI-H929; type: cell-based; conditions: Homo sapiens, 72 h / 3 days, values given as IC50 category
Experimental: Cell proliferation was measured by either CellTiter-Glo (measures cellular ATP level as a surrogate for total cell number) or by InCell analyzer (counts number of nuclei as a measure of cell number).
For CellTiter-Glo assay, exponentially growing cell lines of different tumor origins, cultured in appropriate media containing 10% fetal bovine serum at 37° C. in a 5% CO2 incubator, were plated at low density (less than 2000cells/well) in 96-well plates. Twenty four hours post-plating, cells were treated with different concentrations of test compounds ranging from 30 uM to 1.5 nM. Several wells were left untreated as a control. Seventy two hours post-treatment, cell numbers were determined using 50-100 ul per well of CellTiter-Glo (Promega #G7573). Plates were incubated at 37° C. for 30 minutes and the chemiluminescent signal was read on the Victor V or Envison 2100 reader.
For InCell Analyser assay, various cell lines of different tumor origins were grown to 70-80% confluency in appropriate culture media containing 10% fetal bovine serum at 37° C. in a 5% CO2 incubator. On day −1, cells were seeded at 2 densities in 384-well plates and incubated at 37° C. overnight. Stock compound plates were prepared in advance which contained dimethyl sulfoxide (DMSO) alone and a 9-point half-log decreasing dose range of the compound in DMSO. The compound plates were stored at −80° C. and each plate was only thawed once and used. On day 0, the main assay plates received compound or DMSO via a sonic delivery system (ECHO). The highest final concentration of compound of the dose range in the culture plates was 10 uM. These plates were cultured at 37° C. for 3 days. […] On day 3, the compound treated plates were stained and fixed to measure proliferation, apoptosis, and mitotic index using an InCelL1000 analyser. A nuclear stain was used to identify cells in the wells. By counting the number of nuclei, the proliferation index of compound treated groups were calculated as a percentage relative to the DMSO control, which was set to 100%. The IC50 values were calculated using model 205 in ExcelFit.
IC50 (nM) values for compounds of select examples were categorized by relative inhibition of cell proliferation.

[4] = target: T4, NIH-3T3 cells overexpressing human IGF-1R (Homo sapiens, UniProt P08069); experiment: IGF-1R cellular autophosphorylation (DELFIA); type: cell-based
T4 construct: expressed in transfected cells; host or cells: NIH-3T3 (mouse fibroblasts)
T4 sequence (P08069 31-1367): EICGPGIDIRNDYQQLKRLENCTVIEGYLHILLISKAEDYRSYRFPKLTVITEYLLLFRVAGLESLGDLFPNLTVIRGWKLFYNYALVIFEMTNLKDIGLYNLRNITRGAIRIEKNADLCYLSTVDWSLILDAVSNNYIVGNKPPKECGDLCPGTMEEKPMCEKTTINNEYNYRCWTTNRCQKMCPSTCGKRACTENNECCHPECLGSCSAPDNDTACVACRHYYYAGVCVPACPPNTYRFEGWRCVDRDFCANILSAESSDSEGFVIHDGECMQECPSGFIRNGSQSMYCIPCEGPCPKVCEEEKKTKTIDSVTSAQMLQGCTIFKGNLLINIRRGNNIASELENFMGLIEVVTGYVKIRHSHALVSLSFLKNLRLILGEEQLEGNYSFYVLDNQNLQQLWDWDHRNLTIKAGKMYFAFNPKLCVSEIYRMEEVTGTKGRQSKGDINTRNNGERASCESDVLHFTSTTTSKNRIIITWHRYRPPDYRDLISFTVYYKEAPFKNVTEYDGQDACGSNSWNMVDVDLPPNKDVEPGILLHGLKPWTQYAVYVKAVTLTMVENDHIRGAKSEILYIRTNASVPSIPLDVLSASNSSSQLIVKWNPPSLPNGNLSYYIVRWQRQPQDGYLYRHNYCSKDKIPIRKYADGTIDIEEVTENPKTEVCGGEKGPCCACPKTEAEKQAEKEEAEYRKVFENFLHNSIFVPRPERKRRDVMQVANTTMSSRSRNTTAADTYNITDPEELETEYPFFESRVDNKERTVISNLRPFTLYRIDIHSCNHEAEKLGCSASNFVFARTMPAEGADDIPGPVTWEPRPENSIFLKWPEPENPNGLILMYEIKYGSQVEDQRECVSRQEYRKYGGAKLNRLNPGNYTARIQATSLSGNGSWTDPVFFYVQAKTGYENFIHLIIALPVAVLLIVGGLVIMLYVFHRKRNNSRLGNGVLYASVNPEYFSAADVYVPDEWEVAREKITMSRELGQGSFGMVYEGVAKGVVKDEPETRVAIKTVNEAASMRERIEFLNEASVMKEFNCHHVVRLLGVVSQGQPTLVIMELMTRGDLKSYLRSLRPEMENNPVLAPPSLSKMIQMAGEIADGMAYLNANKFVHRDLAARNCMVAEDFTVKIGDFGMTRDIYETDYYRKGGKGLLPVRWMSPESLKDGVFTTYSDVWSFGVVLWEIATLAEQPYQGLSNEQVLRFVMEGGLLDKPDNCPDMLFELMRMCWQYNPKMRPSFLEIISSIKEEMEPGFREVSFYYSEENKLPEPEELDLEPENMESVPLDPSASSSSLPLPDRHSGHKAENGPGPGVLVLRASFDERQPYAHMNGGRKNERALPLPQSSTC
Method in brief: (§1)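 Receptor autophosphorylation measured by DELFIA, capturing IGF-1R or IRβ and detecting with europium anti-pTyr, reported as percent of IGF-1- or insulin-stimulated signal. Compounds (30 uM to 1.5 nM) added 2 h before ligand, then 15 min stimulation (IGF-1 30 ng/ml or insulin 3 ug/ml).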

[5] = target: T5, NIH-3T3 cells overexpressing human IR (Homo sapiens, UniProt P06213); experiment: IR cellular autophosphorylation (DELFIA); type: cell-based; conditions: 2 h compound, insulin 3 ug/ml for 15 minutes, IC50 category
T5 construct: expressed in transfected cells; host or cells: NIH-3T3 (mouse fibroblasts)
T5 sequence (P06213 28-1382): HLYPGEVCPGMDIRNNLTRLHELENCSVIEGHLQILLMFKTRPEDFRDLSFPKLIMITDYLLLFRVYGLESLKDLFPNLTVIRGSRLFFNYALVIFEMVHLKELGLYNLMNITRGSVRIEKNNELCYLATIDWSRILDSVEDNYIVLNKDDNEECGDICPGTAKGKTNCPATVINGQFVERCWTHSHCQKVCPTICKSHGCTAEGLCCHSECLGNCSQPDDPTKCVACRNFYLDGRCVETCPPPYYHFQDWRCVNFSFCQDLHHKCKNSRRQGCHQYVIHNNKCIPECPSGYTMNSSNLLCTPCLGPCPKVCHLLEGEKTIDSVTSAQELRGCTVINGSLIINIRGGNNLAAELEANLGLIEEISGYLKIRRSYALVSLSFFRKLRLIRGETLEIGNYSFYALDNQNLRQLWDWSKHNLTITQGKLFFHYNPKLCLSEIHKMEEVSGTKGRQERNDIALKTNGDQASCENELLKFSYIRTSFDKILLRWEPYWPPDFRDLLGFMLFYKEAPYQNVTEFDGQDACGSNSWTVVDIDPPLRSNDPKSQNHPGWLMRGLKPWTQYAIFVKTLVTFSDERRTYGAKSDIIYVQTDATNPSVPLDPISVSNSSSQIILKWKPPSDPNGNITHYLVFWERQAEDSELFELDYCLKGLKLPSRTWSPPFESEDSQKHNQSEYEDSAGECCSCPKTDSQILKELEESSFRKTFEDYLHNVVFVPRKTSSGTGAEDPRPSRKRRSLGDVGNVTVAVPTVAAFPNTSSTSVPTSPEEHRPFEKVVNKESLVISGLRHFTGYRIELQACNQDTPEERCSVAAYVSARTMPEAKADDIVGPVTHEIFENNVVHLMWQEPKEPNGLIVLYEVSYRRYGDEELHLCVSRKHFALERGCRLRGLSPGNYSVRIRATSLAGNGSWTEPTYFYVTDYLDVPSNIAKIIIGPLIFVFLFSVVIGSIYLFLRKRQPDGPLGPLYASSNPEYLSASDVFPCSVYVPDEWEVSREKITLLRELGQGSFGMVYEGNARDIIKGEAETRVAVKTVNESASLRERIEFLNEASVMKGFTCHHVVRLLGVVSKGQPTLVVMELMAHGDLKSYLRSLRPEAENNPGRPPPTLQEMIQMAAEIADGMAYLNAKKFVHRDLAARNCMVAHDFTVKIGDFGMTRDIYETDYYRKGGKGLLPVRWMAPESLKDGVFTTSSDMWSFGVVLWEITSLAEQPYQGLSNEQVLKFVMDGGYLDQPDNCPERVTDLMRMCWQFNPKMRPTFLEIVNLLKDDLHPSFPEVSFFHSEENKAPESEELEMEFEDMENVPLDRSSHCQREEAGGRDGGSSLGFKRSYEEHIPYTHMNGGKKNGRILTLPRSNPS
Method in brief: as §1

ALK [6] = target: T1, ALK; experiment: ALK enzyme assay (HTRF); type: biochemical; conditions: 0.25 nM ALK, 15.0 μM ATP, values given as pIC50 category
Method in brief: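 Final compound range 0.00017 to 10 μM (twelve 1:3 dilutions). Kinase reaction with ATP and biotinylated synthetic peptide runs 120 min at 20° C, stopped with EDTA; phosphotyrosine detected by HTRF after 60 min. Inhibition referenced to DMSO (1%) and EDTA (0.1 M) controls, curve-fitted.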

Compound	IC50 (human IGF1R (hIGF1R))	IC50 (human IR (hIR))	IC50 (Colo205)	IC50 (NCI-H929)	IC50 [4]	IC50 [5]	IC50 (ALK [6])	activity against ALCL cells (ALCL cells [1]; in vitro)	activity in tumor xenograft models (ALCL cells [2]; tumor xenograft models)	consequence of the inhibition of ALK autophosphorylation in the cells (ALK [3])	inhibition of ALK autophosphorylation (ALK [3])	inhibition of the growth of ALCL cells (ALCL cells [1]; experimental systems in vitro)	inhibition of the growth of ALCL cells (ALCL cells [2]; experimental systems in vivo)
5-chloro-2,4-diaminophenylpyrimidine [NVP-TAE68]								active against ALCL cells	active	cell cycle arrest and apoptosis	inhibited ALK autophosphorylation		
COc1cc(N2CCC(N3CCCCC3)CC2)ccc1Nc1nc(Nc2cccc(F)c2C(N)=O)c2cc[nH]c2n1 [Example 45, 2-[(2-{[4-(1,4′-bipiperidin-1′-yl)-2-(methyloxy)phenyl]amino}-1H-pyrrolo[2,3-d]pyrimidin-4-yl)amino]-6-fluorobenzamide]	1.26 to 3.98 nM	1.26 to 3.98 nM	250 to 1000 nM	< 250 nM	100 to 500 nM	100 to 500 nM							
CNC(=O)c1c(F)cccc1Nc1nc(Nc2cc3c(cc2OC)CCCN3C(C)=O)nc2[nH]ccc12 [Example 215, 2-[(2-{[1-acetyl-6-(methyloxy)-1,2,3,4-tetrahydro-7-quinolinyl]amino}-1H-pyrrolo[2,3-d]pyrimidin-4-yl)amino]-6-fluoro-N-methylbenzamide]	5.01 to 200 nM	5.01 to 158 nM	> 1000 nM	250 to 1000 nM	> 500 nM	> 500 nM							
COc1cc2c(cc1Nc1nc(Nc3cccc(F)c3C(N)=O)c3cc[nH]c3n1)N(C(C)=O)CCC2 [Example 216, 2-[(2-{[1-acetyl-6-(methyloxy)-1,2,3,4-tetrahydro-7-quinolinyl]amino}-1H-pyrrolo[2,3-d]pyrimidin-4-yl)amino]-6-fluorobenzamide]	5.01 to 200 nM	5.01 to 158 nM	> 1000 nM	250 to 1000 nM	> 500 nM	> 500 nM							
COc1cc2c(cc1Nc1nc(Nc3cccc(F)c3C(N)=O)c3c(C)c[nH]c3n1)N(C(=O)CN(C)C)CC2 [Example 259, 2-[(2-{[1-(N,N-dimethylglycyl)-5-(methyloxy)-2,3-dihydro-1H-indol-6-yl]amino}-5-methyl-1H-pyrrolo[2,3-d]pyrimidin-4-yl)amino]-6-fluorobenzamide]	0.251 to 1 nM	0.251 to 1 nM	250 to 1000 nM	< 250 nM	100 to 500 nM	100 to 500 nM							
C[C@@H](Oc1cc(-c2cnn(C3CCNCC3)c2)cnc1N)c1c(Cl)ccc(F)c1Cl [PF2341066]												inhibit the growth of ALCL cells	inhibit the growth of ALCL cells

Now from value to compound, other results behind:

IC50 (human IGF1R (hIGF1R))	IC50 (human IR (hIR))	IC50 (Colo205)	IC50 (NCI-H929)	IC50 [4]	IC50 [5]	IC50 (ALK [6])	Compound	activity against ALCL cells (ALCL cells [1]; in vitro)	activity in tumor xenograft models (ALCL cells [2]; tumor xenograft models)	consequence of the inhibition of ALK autophosphorylation in the cells (ALK [3])	inhibition of ALK autophosphorylation (ALK [3])	inhibition of the growth of ALCL cells (ALCL cells [1]; experimental systems in vitro)	inhibition of the growth of ALCL cells (ALCL cells [2]; experimental systems in vivo)
0.251 to 1 nM	0.251 to 1 nM	< 250 nM	< 250 nM	100 to 500 nM	100 to 500 nM		CCCN1CCC(c2ccc(Nc3nc(Nc4cccc(F)c4C(N)=O)c4cc[nH]c4n3)c(OC)c2)CC1 [Example 42, 2-fluoro-6-[(2-{[2-(methyloxy)-4-(1-propyl-4-piperidinyl)phenyl]amino}-1H-pyrrolo[2,3-d]pyrimidin-4-yl)amino]benzamide]						
	0.251 to 1 nM	< 250 nM	< 250 nM	< 100 nM	< 100 nM	0.251 to 1 nM	CCCN1CCC=C(c2ccc(OC)c(Nc3nc(Nc4ccc(F)cc4C(N)=O)c4cc[nH]c4n3)c2)C1 [Example 57, 5-fluoro-2-[(2-{[2-(methyloxy)-5-(1-propyl-1,2,5,6-tetrahydro-3-pyridinyl)phenyl]amino}-1H-pyrrolo[2,3-d]pyrimidin-4-yl)amino]benzamide]						
	0.251 to 1 nM	< 250 nM	< 250 nM	< 100 nM	100 to 500 nM	0.251 to 1 nM	COc1cc(N2CCN(C(C)C)CC2)ccc1Nc1nc(Nc2ccc(F)cc2C(N)=O)c2cc[nH]c2n1 [Example 60, 5-fluoro-2-[(2-{[4-[4-(1-methylethyl)-1-piperazinyl]-2-(methyloxy)phenyl]amino}-1H-pyrrolo[2,3-d]pyrimidin-4-yl)amino]benzamide]						
0.251 to 1 nM	0.251 to 1 nM	250 to 1000 nM	250 to 1000 nM	100 to 500 nM	100 to 500 nM		CNC(=O)c1c(F)cc(Cl)cc1Nc1nc(Nc2cc3c(cc2OC)CCN3C(=O)CN2CCCC2)nc2[nH]ccc12 [Example 176, 4-chloro-2-fluoro-N-methyl-6-[(2-{[5-(methyloxy)-1-(1-pyrrolidinylacetyl)-2,3-dihydro-1H-indol-6-yl]amino}-1H-pyrrolo[2,3-d]pyrimidin-4-yl)amino]benzamide]						
0.251 to 1 nM	0.251 to 1 nM	< 250 nM	< 250 nM	< 100 nM	< 100 nM		COc1cc2c(cc1Nc1nc(Nc3cccc(F)c3C(N)=O)c3c(F)c[nH]c3n1)N(C(=O)CN(C)C)CC2 [Example 252, 2-[(2-{[1-(N,N-dimethylglycyl)-5-(methyloxy)-2,3-dihydro-1H-indol-6-yl]amino}-5-fluoro-1H-pyrrolo[2,3-d]pyrimidin-4-yl)amino]-6-fluorobenzamide]						
